Test results from patent US11034658B2, “Pyridinyl pyrazoles as modulators of RORγT” (Janssen Pharmaceutica NV, priority 2018, dated 2021).

What was measured:
[1] = target: human RORγt ligand binding domain (RORγt LBD) (Homo sapiens (Human), UniProt P51449); assay: RORγt ThermoFluor assay
Source text: ThermoFluor® is a fluorescence based assay that estimates ligand binding affinities by measuring the effect of a ligand on protein thermal stability (Pantoliano, M. W., Petrella, E. C., Kwasnoski, J. D., Lobanov, V. S., Myslik, J., Graf, E., Carver, T., Asel, E., Springer, B. A., Lane, P., and Salemme, F. R. (2001) High-density miniaturized thermal shift assays as a general strategy for drug discovery. J Biomol Screen 6, 429-40, and Matulis, D., Kranz, J. K., Salemme, F. R., and Todd, M. J. (2005) Thermodynamic stability of carbonic anhydrase: measurements of binding affinity and stoichiometry using ThermoFluor. Biochemistry 44, 5258-66). This approach is applicable to a wide variety of systems, and rigorous in theoretical interpretation through quantitation of equilibrium binding constants (KD).
The shift in the melting point described as a ΔTm is proportional to the concentration and affinity of the ligand. The compound potency may be compared as a rank order of either values at a single compound concentration or in terms of KD values, estimated from concentration response curves.
RORγt ThermoFluor® Assay Construct
For the RORγt construct used in the ThermoFluor® assay, numbering for the nucleotide sequences was based on the reference sequence for human RORγt, transcript variant 2, NCBI Accession: NM 001001523.1 (SEQ ID NO:1). Nucleotides 850-1635 (SEQ ID NO:2) coding for the wild type human RORγt ligand binding domain (RORγt LBD) were cloned into the pHIS1 vector, a modified pET E. coli expression vector (Accelagen, San Diego), containing an in-frame N-terminal His-tag and a TurboTEV protease cleavage site (ENLYFQG, SEQ ID NO:3) upstream of the cloned insert sequence. The amino acid sequence for the RORγt construct used in the Thermofluor® assay is shown as SEQ ID NO:4.
ThermoFluor® experiments were carried out using instruments owned by Janssen Research and Development, L.L.C. through its acquisition of 3-Dimensional Pharmaceuticals, Inc. 1,8-ANS (Invitrogen) was used as a fluorescent dye. Protein and compound solutions are dispensed into black 384-well polypropylene PCR microplates (Abgene) and overlayed with silicone oil (1 μL, Fluka, type DC 200) to prevent evaporation.
Bar-coded assay plates are robotically loaded onto a thermostatically controlled PCR-type thermal block and then heated at a typical ramp-rate of 1° C./min for all experiments. Fluorescence was measured by continuous illumination with UV light (Hamamatsu LC6) supplied via fiber optic and filtered through a band-pass filter (380-400 nm; >6 OD cutoff). Fluorescence emission of the entire 384-well plate was detected by measuring light intensity using a CCD camera (Sensys, Roper Scientific) filtered to detect 500±25 nm, resulting in simultaneous and independent readings of all 384 wells. Images were collected at each temperature, and the sum of the pixel intensity in a given area of the assay plate was recorded versus temperature. Reference wells contained RORγt without compounds, and the assay conditions were as follows:
Project compounds were arranged in a pre-dosed mother plate (Greiner Bio-one) wherein compounds are serially diluted in 100% DMSO by 1:2 from a high concentration of 10 mM over 12 columns within a series (column 12 is a reference well containing DMSO, no compound). The compounds were robotically dispensed directly into assay plates (1×=46 nL) using a Hummingbird capillary liquid handling instrument (Digilab). Following compound dispense, protein and dye in buffer was added to achieve the final assay volume of 3 μL, followed by 1 μL of silicone oil.
The binding affinity was estimated as described previously (Matulis, D., Kranz, J. K., Salemme, F. R., and Todd, M. J. (2005) Thermodynamic stability of carbonic anhydrase: measurements of binding affinity and stoichiometry using ThermoFluor®. Biochemistry 44, 5258-66) using the following thermodynamic parameters of protein unfolding:
Reference RORγt Tm: 47.8° C.

[2] = target: full-length human RORγt (GAL4-DBD-RORγt fusion) in HEK293T cells (Homo sapiens (Human), UniProt P51449); assay: RORγt (full-length human) reporter assay, conditions A or B; type: cell-based; conditions: for IC50: HEK293T cells, read-out: RORγt (FL) Reporter Assay A or B, IC50; for inhibition at 3 µM / inhibition at 1 µM: HEK-293T, read-out: RORγt (FL) Reporter Assay A or B, % inhibition; for inhibition at 3 µM: 3 μM compound concentration (footnote *); for inhibition at 1 µM: 1 μM compound concentration (footnote ***)
Experimental: RORγt (Full-Length Human) Reporter Assay:
(§1) HEK293T cells were plated at 35,000 per well in 96-well plate in medium of DMEM with 10% FBS. […] After overnight (16 to 20 hours) incubation, media were removed and cells were lysed with 50 μL Glo Lysis Buffer (Promega) for 10-15 minutes followed by 10 minute incubation with 50 μL Dual Glo reagent (Promega) at room temperature. Firefly luciferase luminescence was measured using a BMG Pherastar plate reader. To each well, 50 μL Stop and Glo reagent was added and incubated for 10 minutes at room temperature. Renilla luminescence was measured using a BMG Pherastar plate reader. To calculate the effect of compounds on RORγt activity, firefly values were normalized against values of DMSO only and values of reference compound at saturating concentration, then further normalized against Renilla signals. IC50s were generated by plotting final Renilla normalized data against compound concentration and percent inhibition was calculated against DMSO control.
as §1, with “at 8750 cells” for “at 35,000”, “in 384-well” for “in 96-well”, “with 20” for “with 50”, “well, 20” for “well, 50”

Sequence of full-length human RORγt (GAL4-DBD-RORγt fusion) in HEK293T cells (P51449 other isoform, or with tags, fused parts or gaps): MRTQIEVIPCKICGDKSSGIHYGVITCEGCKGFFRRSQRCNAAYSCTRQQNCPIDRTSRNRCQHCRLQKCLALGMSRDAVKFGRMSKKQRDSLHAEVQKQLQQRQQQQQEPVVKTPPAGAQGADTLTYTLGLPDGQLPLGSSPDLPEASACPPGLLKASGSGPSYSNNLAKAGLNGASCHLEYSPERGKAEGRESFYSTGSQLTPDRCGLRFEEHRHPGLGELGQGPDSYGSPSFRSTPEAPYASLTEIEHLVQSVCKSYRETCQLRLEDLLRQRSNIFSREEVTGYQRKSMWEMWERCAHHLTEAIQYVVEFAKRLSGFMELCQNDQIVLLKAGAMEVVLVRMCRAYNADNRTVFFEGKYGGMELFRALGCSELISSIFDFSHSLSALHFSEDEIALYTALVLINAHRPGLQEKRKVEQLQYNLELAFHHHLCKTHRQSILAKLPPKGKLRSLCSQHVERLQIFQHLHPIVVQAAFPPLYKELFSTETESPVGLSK
Sequence of human RORγt ligand binding domain (RORγt LBD) (P51449 other isoform, or with tags, fused parts or gaps): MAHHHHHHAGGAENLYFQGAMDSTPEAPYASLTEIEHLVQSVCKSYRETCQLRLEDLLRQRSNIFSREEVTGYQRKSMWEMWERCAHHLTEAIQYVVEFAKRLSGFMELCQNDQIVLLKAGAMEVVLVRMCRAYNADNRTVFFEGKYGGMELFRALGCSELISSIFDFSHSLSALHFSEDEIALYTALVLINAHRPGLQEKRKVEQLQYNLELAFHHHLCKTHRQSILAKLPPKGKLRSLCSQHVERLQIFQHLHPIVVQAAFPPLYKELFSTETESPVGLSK

CCn1nc(C(=O)NC[C@H]2CC[C@H](S(N)(=O)=O)CC2)c(Cl)c1-c1cnc(CC(C)(C)C(F)(F)F)cc1OC(F)F [Example 11, 4-chloro-5-(4-(difluoromethoxy)-6-(3,3,3-trifluoro-2,2-dimethylpropyl)pyridin-3-yl)-1-ethyl-N-(((1r,4r)-4-sulfamoylcyclohexyl)methyl)-1H-pyrazole-3-carboxamide]
Kd [1]: 1.4 nM | IC50 [2]: 23 nM | inhibition at 3 µM [2]: 108%

CCn1nc(C(=O)NC[C@H]2CC[C@H](S(N)(=O)=O)CC2)c(C)c1-c1cnc(CC(C)(C)C(F)(F)F)cc1OC(F)F [Example 12, 5-(4-(Difluoromethoxy)-6-(3,3,3-trifluoro-2,2-dimethylpropyl)pyridin-3-yl)-1-ethyl-4-methyl-N-(((1r,4r)-4-sulfamoylcyclohexyl)methyl)-1H-pyrazole-3-carboxamide]
Kd [1]: 4.3 nM | IC50 [2]: 29 nM | inhibition at 3 µM [2]: 110%

CCn1nc(C(=O)NC[C@H]2CC[C@H](S(C)(=O)=O)CC2)c(Cl)c1-c1cnc(CC(C(F)(F)F)C(F)(F)F)cc1OC(F)F [Example 21, 4-Chloro-5-(4-(difluoromethoxy)-6-(3,3,3-trifluoro-2-(trifluoromethyl)propyl)pyridin-3-yl)-1-ethyl-N-(((1r,4r)-4-(methylsulfonyl)cyclohexyl)methyl)-1H-pyrazole-3-carboxamide]
Kd [1]: 1.2 nM | IC50 [2]: 20 nM | inhibition at 1 µM [2]: 120%

CCn1nc(C(=O)NC[C@]2(O)CC[C@@H](S(C)(=O)=O)CC2)c(Cl)c1-c1cnc(CC(C(F)(F)F)C(F)(F)F)cc1OC(F)F [Example 22, 4-Chloro-5-(4-(difluoromethoxy)-6-(3,3,3-trifluoro-2-(trifluoromethyl)propyl)pyridin-3-yl)-1-ethyl-N-(((1s,4s)-1-hydroxy-4-(methylsulfonyl)cyclohexyl)methyl)-1H-pyrazole-3-carboxamide]
Kd [1]: 6.4 nM | IC50 [2]: 46 nM | inhibition at 1 µM [2]: 115%

CCn1nc(C(=O)NC[C@H]2CC[C@H](S(C)(=O)=O)CC2)c(C)c1-c1cnc(CC(C(F)(F)F)C(F)(F)F)cc1OC(F)F [Example 23, 5-(4-(Difluoromethoxy)-6-(3,3,3-trifluoro-2-(trifluoromethyl)propyl)pyridin-3-yl)-1-ethyl-4-methyl-N-(((1r,4r)-4-(methylsulfonyl)cyclohexyl)methyl)-1H-pyrazole-3-carboxamide]
Kd [1]: 2.5 nM | IC50 [2]: 15 nM | inhibition at 3 µM [2]: 100%

CCn1nc(C(=O)NC[C@]2(O)CC[C@@H](S(C)(=O)=O)CC2)c(C)c1-c1cnc(CC(C(F)(F)F)C(F)(F)F)cc1OC(F)F [Example 24, 5-(4-(Difluoromethoxy)-6-(3,3,3-trifluoro-2-(trifluoromethyl)propyl)pyridin-3-yl)-1-ethyl-N-(((1s,4s)-1-hydroxy-4-(methylsulfonyl)cyclohexyl)methyl)-4-methyl-1H-pyrazole-3-carboxamide]
Kd [1]: 8.9 nM | IC50 [2]: 63 nM | inhibition at 3 µM [2]: 113%

CCn1nc(C(=O)NC[C@H]2CC[C@H](S(C)(=O)=O)CC2)c(Cl)c1-c1cnc(CC(C)(C)C(F)(F)F)cc1C(C)C [Example 25]
Kd [1]: 15 nM | IC50 [2]: 340 nM | inhibition at 3 µM [2]: 94%

CCn1nc(C(=O)NC[C@H]2CC[C@H](S(C)(=O)=O)CC2)c(Cl)c1-c1cnc(CC(C)(C)C(F)(F)F)cc1C(F)F [Example 26, 4-Chloro-5-(4-(difluoromethyl)-6-(3,3,3-trifluoro-2,2-dimethylpropyl)pyridin-3-yl)-1-ethyl-N-(((1r,4r)-4-(methylsulfonyl)cyclohexyl)methyl)-1H-pyrazole-3-carboxamide]
Kd [1]: 17 nM | IC50 [2]: 14 nM | inhibition at 3 µM [2]: 88%

CCn1nc(C(=O)NC[C@]2(O)CC[C@@H](S(C)(=O)=O)CC2)c(Cl)c1-c1cnc(CC(C)(C)C(F)(F)F)cc1C(F)F [Example 27, 4-Chloro-5-(4-(difluoromethyl)-6-(3,3,3-trifluoro-2,2-dimethylpropyl)pyridin-3-yl)-1-ethyl-N-(((1s,4s)-1-hydroxy-4-(methylsulfonyl)cyclohexyl)methyl)-1H-pyrazole-3-carboxamide]
Kd [1]: 47 nM | IC50 [2]: 130 nM | inhibition at 3 µM [2]: 20%

CCn1nc(C(=O)NC[C@]2(O)CC[C@@H](S(C)(=O)=O)CC2)c(C)c1-c1cnc(CC(C)(C)C(F)(F)F)cc1C(F)F [Example 28, 5-(4-(Difluoromethyl)-6-(3,3,3-trifluoro-2,2-dimethylpropyl)pyridin-3-yl)-1-ethyl-N-(((1s,4s)-1-hydroxy-4-(methylsulfonyl)cyclohexyl)methyl)-4-methyl-1H-pyrazole-3-carboxamide]
Kd [1]: 97 nM | IC50 [2]: 2 nM | inhibition at 3 µM [2]: 76%

Cn1nc(C(=O)NC[C@H]2CC[C@H](S(C)(=O)=O)CC2)c(Cl)c1-c1cnc(CC(C)(C)C(F)(F)F)cc1OC(F)F [Example 30, 4-Chloro-5-(4-(difluoromethoxy)-6-(3,3,3-trifluoro-2,2-dimethylpropyl)pyridin-3-yl)-1-methyl-N-(((1r,4r)-4-(methylsulfonyl)cyclohexyl)methyl)-1H-pyrazole-3-carboxamide]
Kd [1]: 10 nM | IC50 [2]: 100 nM | inhibition at 3 µM [2]: 98%

Cc1c(C(=O)NC[C@H]2CC[C@H](S(C)(=O)=O)CC2)nn(C)c1-c1cnc(CC(C)(C)C(F)(F)F)cc1OC(F)F [Example 31]
Kd [1]: 26 nM | IC50 [2]: 160 nM | inhibition at 1 µM [2]: 100%

CCn1nc(C(=O)NC[C@H]2CC[C@H](S(C)(=O)=O)CC2)c(Cl)c1-c1cnc(CCCC(F)(F)F)cc1OC(F)F [Example 32, 4-Chloro-5-(4-(difluoromethoxy)-6-(4,4,4-trifluorobutyl)pyridin-3-yl)-1-ethyl-N-(((1r,4r)-4-(methylsulfonyl)cyclohexyl)methyl)-1H-pyrazole-3-carboxamide]
Kd [1]: 18 nM | IC50 [2]: 54 nM | inhibition at 3 µM [2]: 129%
